Data taken from paper PMC7114241 (Antiviral Research, 2011).

Biological target: SARS-CoV M^pro (Severe acute respiratory syndrome coronavirus, UniProt P0C6X7)
Assay type: biochemical

Q: How did the “apparent k cat/K m” value turn out when Dabcyl-KTSAVLQ↓SGFRKME-Edans amide was run?
A: 2359 M^−1·19 s^−1

Q: What about the “k cat/K m” value of the same substance?
A: 7863 M⁻¹ s⁻¹

Q: What about the K m (pH 7.3) of the same substance?
A: 24.5 µM
